Measurements as given in ChEMBL document CHEMBL1201862, “PubChem BioAssay data set” (2004).
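Five concentrations, 48 hours, 96-well plates. At the GI50, growth is halved.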 Activity calls are given as the source filed them. Rule as the data show it: active = GI50 up to about 1.1 µM and inactive = higher.

Assays:
Assay in all cases: NCI anticancer screen, dose series, 48 h
LOX IMVI = tested on: LOX IMVI
HOP-62 = tested on: HOP-62
MDA-MB-231 = tested on: MDA-MB-231
SK-MEL-2 = tested on: SK-MEL-2
HCT-116 = tested on: HCT-116
K562 = tested on: K562
U-251 = tested on: U-251
HCC 2998 = tested on: HCC 2998
A549 = tested on: A549
COLO 205 = tested on: COLO 205
UO-31 = tested on: UO-31
RXF 393 = tested on: RXF 393
SF-539 = tested on: SF-539
SK-MEL-28 = tested on: SK-MEL-28
SK-MEL-5 = tested on: SK-MEL-5
BT-549 = tested on: BT-549
MOLT-4 = tested on: MOLT-4
Malme-3M = tested on: Malme-3M
NCI/ADR-RES = tested on: NCI/ADR-RES
CCRF-CEM = tested on: CCRF-CEM

| Structure (SMILES) | GI50 (LOX IMVI) | GI50 (HOP-62) | GI50 (MDA-MB-231) | GI50 (SK-MEL-2) | GI50 (HCT-116) | GI50 (K562) | GI50 (U-251) | GI50 (HCC 2998) | GI50 (A549) | GI50 (COLO 205) | GI50 (UO-31) | GI50 (RXF 393) | GI50 (SF-539) | GI50 (SK-MEL-28) | GI50 (SK-MEL-5) | GI50 (BT-549) | GI50 (MOLT-4) | GI50 (Malme-3M) | GI50 (NCI/ADR-RES) | GI50 (CCRF-CEM) |
| --- | --- | --- | --- | --- | --- | --- | --- | --- | --- | --- | --- | --- | --- | --- | --- | --- | --- | --- | --- | --- |
| OB(O)c1ccccc1C#Cc1ccccc1B(O)O | 19 µM (inactive) | 23.9 µM (inactive) | 20.8 µM (inactive) | 11.5 µM (inactive) | 18.1 µM (inactive) | 38.3 µM (inactive) | 19.2 µM (inactive) | 17.7 µM (inactive) | 18.5 µM (inactive) | 16.2 µM (inactive) | 20.3 µM (inactive) | 11.3 µM (inactive) | 18.4 µM (inactive) | 35.6 µM (inactive) | 14.8 µM (inactive) | 12.2 µM (inactive) | 40.5 µM (inactive) | 17.1 µM (inactive) | 25.5 µM (inactive) | 20.1 µM (inactive) |
| COC(=O)C1=CC2CCCC1(O)C(C(C)=O)C2 (centres undefined) | 16.6 µM (inactive) | > 75 µM (inactive) | 46.6 µM (inactive) | > 68.7 µM (inactive) | 62.1 µM (inactive) | 34 µM (inactive) | 63.2 µM (inactive) | > 100 µM (inactive) | 51.9 µM (inactive) | 39.8 µM (inactive) | 17.3 µM (inactive) | > 70.1 µM (inactive) | 11.6 µM (inactive) | > 100 µM (inactive) | > 100 µM (inactive) | > 95.7 µM (inactive) | 21.1 µM (inactive) | > 100 µM (inactive) | > 63.2 µM (inactive) | 21.1 µM (inactive) |
| N#C/C(=C\c1ccc(F)cc1)c1nc2ccccc2c(=O)[nH]1 | > 100 µM (inactive) | 47 µM (inactive) | 48.3 µM (inactive) | > 100 µM (inactive) | > 100 µM (inactive) | > 100 µM (inactive) | 70.6 µM (inactive) | > 100 µM (inactive) | > 100 µM (inactive) | > 100 µM (inactive) | > 100 µM (inactive) | > 100 µM (inactive) | > 100 µM (inactive) | > 100 µM (inactive) |  | 36.8 µM (inactive) | 26.1 µM (inactive) | > 100 µM (inactive) | > 100 µM (inactive) | > 100 µM (inactive) |
| COC(=O)[C@]1(c2cc3ccccc3[nH]2)CC2CN(C(=O)OCc3ccccc3)C1C=C2OC (some centres undefined) | 34 µM (inactive) | 31 µM (inactive) | 19.9 µM (inactive) | 17.5 µM (inactive) | 28.8 µM (inactive) | 37.4 µM (inactive) | 26.6 µM (inactive) | 21.5 µM (inactive) | 31.5 µM (inactive) | 19 µM (inactive) |  | 22.7 µM (inactive) | 25.4 µM (inactive) | 38 µM (inactive) |  | 31 µM (inactive) | 22.2 µM (inactive) | 28.9 µM (inactive) | 38.3 µM (inactive) | 24.8 µM (inactive) |
| CCOC(=O)c1c(-c2ccccc2)c(OC)cn1C | > 10 µM (inactive) | > 10 µM (inactive) | > 10 µM (inactive) | > 10 µM (inactive) | > 10 µM (inactive) | > 10 µM (inactive) | > 10 µM (inactive) | > 10 µM (inactive) | > 10 µM (inactive) | > 10 µM (inactive) |  | > 10 µM (inactive) | > 10 µM (inactive) | > 10 µM (inactive) | > 10 µM (inactive) | > 10 µM (inactive) | > 10 µM (inactive) | > 10 µM (inactive) | > 10 µM (inactive) | > 10 µM (inactive) |
| COc1cc2oc(-c3ccc4c(c3)OCO4)c(OC)c(=O)c2c(OC)c1OC | > 100 µM (inactive) | 27.4 µM (inactive) | > 100 µM (inactive) | > 100 µM (inactive) | > 100 µM (inactive) | > 100 µM (inactive) | 38.2 µM (inactive) | > 100 µM (inactive) | > 100 µM (inactive) | > 100 µM (inactive) | > 100 µM (inactive) | 32.7 µM (inactive) | 45.2 µM (inactive) | > 100 µM (inactive) | 51.5 µM (inactive) | 38.7 µM (inactive) | > 100 µM (inactive) | > 100 µM (inactive) | > 100 µM (inactive) | > 100 µM (inactive) |
| O=c1[nH]nc(-c2ccccc2)n1/N=C\CC/C=N\n1c(-c2ccccc2)n[nH]c1=O | 12.9 µM (inactive) | > 52.4 µM (inactive) | 29.2 µM (inactive) | 20.2 µM (inactive) | 24.2 µM (inactive) | 31.1 µM (inactive) | 40.6 µM (inactive) | 40.7 µM (inactive) | > 100 µM (inactive) | 55 µM (inactive) | > 67.6 µM (inactive) | > 67.5 µM (inactive) | 27.4 µM (inactive) | 23 µM (inactive) | 21.6 µM (inactive) | 19.2 µM (inactive) | 20.1 µM (inactive) | 25.2 µM (inactive) | 38.5 µM (inactive) | > 10 µM (inactive) |
| O=c1[nH]/c(=C/c2ccc(OCc3ccccc3)cn2)c(=O)[nH]/c1=C/c1ccc(O)cc1 | 0.507 µM (active) | 1.88 µM (inactive) | 1.6 µM (inactive) | 1.33 µM (inactive) | 1.08 µM (active) | 0.859 µM (active) | 0.719 µM (active) | 0.991 µM (active) | 3.05 µM (inactive) | 1.45 µM (inactive) | 0.622 µM (active) | 0.865 µM (active) | 0.461 µM (active) | 1.79 µM (inactive) | 2.07 µM (inactive) | 2.49 µM (inactive) | 0.301 µM (active) | 2.34 µM (inactive) | 0.774 µM (active) | 0.0454 µM (active) |
| Clc1ccc(-c2nc3cc(Cl)ccc3[nH]2)cc1 | 29.1 µM (inactive) | 34.4 µM (inactive) | > 100 µM (inactive) | 26.1 µM (inactive) | 22.9 µM (inactive) | 38.9 µM (inactive) | 31.5 µM (inactive) | 29.8 µM (inactive) | 29.3 µM (inactive) | 19.6 µM (inactive) | 26.2 µM (inactive) | > 100 µM (inactive) | 22.6 µM (inactive) | 47.9 µM (inactive) | 32.7 µM (inactive) | 32.2 µM (inactive) | 34.1 µM (inactive) | 48.2 µM (inactive) | 19.9 µM (inactive) | 54 µM (inactive) |
| Cc1cc(S(=O)(=O)Nc2nc(N)n(-c3cnc4ccccc4n3)n2)c(S)cc1Cl | > 100 µM (inactive) | 69.5 µM (inactive) | > 100 µM (inactive) | > 100 µM (inactive) | > 100 µM (inactive) | > 100 µM (inactive) | 41.9 µM (inactive) | > 100 µM (inactive) | > 100 µM (inactive) | > 100 µM (inactive) | > 100 µM (inactive) | 99.1 µM (inactive) | > 100 µM (inactive) | > 100 µM (inactive) | > 100 µM (inactive) | 16.6 µM (inactive) |  | > 100 µM (inactive) | > 100 µM (inactive) | 37.1 µM (inactive) |
| CNC(=O)NC(CCCCNC(=O)OCc1ccccc1)C(=O)OCc1ccccc1 (centres undefined) | 34.3 µM (inactive) | > 100 µM (inactive) | > 42.9 µM (inactive) | 17.8 µM (inactive) | 81.8 µM (inactive) | 31.3 µM (inactive) | 65.9 µM (inactive) | 30.5 µM (inactive) | > 82 µM (inactive) | 16.3 µM (inactive) | 47.3 µM (inactive) | 27.9 µM (inactive) | 30.3 µM (inactive) | 19.8 µM (inactive) | 15.9 µM (inactive) | > 78.2 µM (inactive) | 19 µM (inactive) | 27 µM (inactive) | > 100 µM (inactive) | 14.7 µM (inactive) |
| CCO[C@@]12CCC3CC4CC[C@@](OCC)(O1)C4C32 (some centres undefined) | > 100 µM (inactive) | > 100 µM (inactive) | > 100 µM (inactive) | > 100 µM (inactive) | > 100 µM (inactive) | > 100 µM (inactive) | > 100 µM (inactive) | > 100 µM (inactive) | > 100 µM (inactive) | > 100 µM (inactive) | > 100 µM (inactive) | > 100 µM (inactive) | > 100 µM (inactive) | > 100 µM (inactive) | > 100 µM (inactive) | > 100 µM (inactive) | > 100 µM (inactive) | > 100 µM (inactive) | > 100 µM (inactive) | > 100 µM (inactive) |
| C=C1C(=O)O[C@@H]2[C@H]1C[C@@H](O)[C@H](C)[C@@](O)(C(=O)/C=C/C)[C@H]2OC(=O)C(C)CC (some centres undefined) | 2.93 µM (inactive) | 21 µM (inactive) | 5.79 µM (inactive) | 22.5 µM (inactive) | 1.84 µM (inactive) | 2.28 µM (inactive) | 11.2 µM (inactive) | 14.5 µM (inactive) | 15.2 µM (inactive) | 1.75 µM (inactive) | 1.82 µM (inactive) | 2.15 µM (inactive) | 7.33 µM (inactive) | 7.85 µM (inactive) | 7.28 µM (inactive) | 5.45 µM (inactive) | 2.44 µM (inactive) | 2 µM (inactive) | 11 µM (inactive) | 0.0428 µM (active) |
| O=C1c2c(Br)sc(Br)c2C(NC(=O)C(F)(F)F)C1O (centres undefined) | 21.8 µM (inactive) |  | 19.2 µM (inactive) | 16.7 µM (inactive) | 18.1 µM (inactive) | 12.1 µM (inactive) | 19.5 µM (inactive) | 18.2 µM (inactive) | 25.3 µM (inactive) | 16.8 µM (inactive) | 22.4 µM (inactive) | 13.3 µM (inactive) | 15.7 µM (inactive) | 21.8 µM (inactive) | 19.5 µM (inactive) | 19.4 µM (inactive) | 31.3 µM (inactive) | 20.2 µM (inactive) | 29.1 µM (inactive) | 26.3 µM (inactive) |
